Measurements taken from patent US7947854B2, “Bis-cationic compounds and use thereof” (The University of Sydney, priority 2003, dated 2011).
Where two headings read alike, the source gives them in different places.

Columns and labels:
[1] = test system: dermatophyte isolates; experiment: Susceptibility of dermatophytes, results stated over all isolates; assay type: cell-based; details: read-out: mean MICs across all the isolates
Description: (§1) Isolates were tested using the method described in the National Committee for Clinical Laboratory Standards (NCCLS) document M38-P for filamentous fungi, with dermatophyte specific modifications described by Fernández-Torres et al, Current topics in Medical Mycology, 14-19 Feb. 1999.
Five dermatophyte isolates were, namely; T. rubrum, T. mentagrophytes, T. tonsurans, M. canis and M. gypseum, all of which produce lipases and some, phospholipase. These isolates were tested by the broth microdilution method according to NCCLS document M38-P, for activity against selected antifungal agents. In addition, ten randomly selected isolates of T. tonsurans were also tested. All isolates were maintained on SDA at 28° C. Candida parapsilosis (ATCC 20019) was used as the reference control is organism. […]
Fungal cultures were subcultured onto Potato Dextrose Agar and grown at 28° C. for 7-10 days. […] Inoculum quantification was performed by plating 100 μl of the 1:1000 dilution of the adjusted inoculum on SDA plates, incubated at 28° C., and after 7 days of incubation, the colonies were counted.
Testing was based on NCCLS M38-P document for testing filamentous moulds. […] Plates were incubated at 28° C. for 7 days, and read at 3 days and 7 days of incubation. […]
Growth in microtitre trays were read by visual inspection by using an illuminated-reversed mirror. […]

[2] = test system: C. albicans (ATCC10231) phospholipases; experiment: Inhibition of C. albicans phospholipases; assay type: biochemical
[3] = test system: ten randomly selected isolates of T. tonsurans; experiment: Susceptibility of ten T. tonsurans isolates, broth microdilution NCCLS M38-P; assay type: cell-based; details: for MIC: Trichophyton tonsurans
Description: as §1
Five dermatophyte isolates were, namely; T. rubrum, T. mentagrophytes, T. tonsurans, M. canis and M. gypseum, all of which produce lipases and some, phospholipase. These isolates were tested by the broth microdilution method according to NCCLS document M38-P, for activity against selected antifungal agents. In addition, ten randomly selected isolates of T. tonsurans were also tested. All isolates were maintained on SDA at 28° C. Candida parapsilosis (ATCC 20019) was used as the reference control is organism.
The microdilution plates used were a single lot of RPMI 1640 basal medium (JRH bioScience Inc. Lenexa, Kans., USA) with L-glutamine and without sodium bicarbonate, buffered to pH 7.0, at 25° C., with 0.165 M (MOPS) morpholinepropanesulfonic acid (Sigma).
Powdered drugs were dissolved in 100% dimethyl sulfoxide (DMSO), at concentrations 100 times higher than the final test concentration. All compounds were prepared in 100% (DMSO). For ITRA and TRB, two-fold drug dilutions were prepared in 100% DMSO at 100 times the final concentration, followed by further dilution 1:50 in RPMI medium, to yield 2× the final strength required for the test.
Fungal cultures were subcultured onto Potato Dextrose Agar and grown at 28° C. for 7-10 days. Fungal suspensions were covered with 5 ml of distilled water, and then colonies were scraped off with cotton tipped swabs. The resulting mixture of conidia and hyphae elements was withdrawn, transferred to a sterile tube and then vortexed with glass beads. After the particles settled, the upper homogeneous suspension was collected and its density adjusted by a densitometer to a 0.5 McFarland standard at the wavelength of 530 nm (80-85% transmittance). These stock suspensions were then diluted 1:50 with RPMI medium to obtain final working inoculum concentration ranging from 0.3×10^4 to 9×10^4 CFU/ml. Inoculum quantification was performed by plating 100 μl of the 1:1000 dilution of the adjusted inoculum on SDA plates, incubated at 28° C., and after 7 days of incubation, the colonies were counted.
Testing was based on NCCLS M38-P document for testing filamentous moulds. Testing was carried out in sterile 96-well flat bottomed microtitre plate. Columns 1 and 3 to 12 were filled with 100 μl of RPMI medium, leaving column 2 unfilled. Columns 1, 2 and 3 were filled with 100 μl of 2× drug concentration. Serial dilutions were then made by transferring 100 μl from column 3 to each column up to column 11, and 100 μl from column 11 was discarded. Column 12 served as drug free growth control. Finally, 100 μl of inoculum suspension was added to all wells except column 1, which acted as sterility control (Columns 1 and 12 served as sterility and growth control respectively). Plates were incubated at 28° C. for 7 days, and read at 3 days and 7 days of incubation. All testing was performed in duplicate, on three separate occasions.
Growth in microtitre trays were read by visual inspection by using an illuminated-reversed mirror. Growth in each well was compared with the “growth control” drug free well. The MIC end point for all the drugs was chosen to be the first well with 100% growth inhibition (i.e. the lowest drug concentration inhibiting growth).

SMILES: CCCC[N+](CCCC)(CCCC)CCCCCCCCCCCC[N+](CCCC)(CCCC)CCCC [Compound 3, 1,12-bis(tributylammonium)do-decane dibromide]
- MIC [1]: 2.62 to 7.61 µg/mL
- inhibition of C. albicans (ATCC10231) phospholipases, in words [2]: inhibits
- MIC Range ([3]; T. tonsurans 1): 1.9 to 3.8 µg/mL
- MIC Range ([3]; T. tonsurans 2): 0.45 to 7.6 µg/mL
- MIC Range ([3]; T. tonsurans 4): 0.45 to 3.8 µg/mL
- MIC Range ([3]; T. tonsurans 5): 0.45 to 7.6 µg/mL
- MIC Range ([3]; T. tonsurans 6): 0.45 to 15.25 µg/mL
- MIC Range ([3]; T. tonsurans 7): 0.45 to 3.8 µg/mL
- MIC Range ([3]; T. tonsurans 8): 0.45 to 3.8 µg/mL
- MIC Range ([3]; T. tonsurans 9): 3.8 to 15.25 µg/mL
- MIC Range ([3]; T. tonsurans 10): 3.8 to 7.6 µg/mL
- MIC Range ([3]; T.tonsurans 3): 0.45 to 3.8 µg/mL
- MIC ([3]; T. tonsurans 1, read-out: MIC GM): 3.02 µg/mL
- MIC ([3]; T. tonsurans 2, read-out: MIC GM): 1.15 µg/mL
- MIC ([3]; T. tonsurans 2, read-out: MIC Mean): 2.83 µg/mL
- MIC ([3]; T. tonsurans 4, read-out: MIC GM): 1.87 µg/mL
- MIC ([3]; T. tonsurans 4, read-out: MIC Mean): 2.68 µg/mL
- MIC ([3]; T. tonsurans 5, read-out: MIC GM): 2.96 µg/mL
- MIC ([3]; T. tonsurans 5, read-out: MIC Mean): 5.22 µg/mL
- MIC ([3]; T. tonsurans 6, read-out: MIC GM): 4.32 µg/mL
- MIC ([3]; T. tonsurans 6, read-out: MIC Mean): 6.94 µg/mL
- MIC ([3]; T. tonsurans 7, read-out: MIC GM): 1.87 µg/mL
- MIC ([3]; T. tonsurans 7, read-out: MIC Mean): 2.68 µg/mL
- MIC ([3]; T. tonsurans 8, read-out: MIC GM): 2.48 µg/mL
- MIC ([3]; T. tonsurans 8, read-out: MIC Mean): 3.13 µg/mL
- MIC ([3]; T. tonsurans 9, read-out: MIC GM): 6.04 µg/mL
- MIC ([3]; T. tonsurans 9, read-out: MIC Mean): 7.61 µg/mL
- MIC ([3]; T. tonsurans 10, read-out: MIC GM): 4.52 µg/mL
- MIC ([3]; T. tonsurans 10, read-out: MIC Mean): 4.75 µg/mL
- MIC ([3]; T.tonsurans 3, read-out: MIC GM): 1.87 µg/mL
- MIC ([3]; T.tonsurans 3, read-out: MIC Mean): 2.68 µg/mL
- MIC ([3]; read-out: MIC Mean, T. tonsurans 1): 3.17 µg/mL
